Measurements from patent US20220331267A1, “METHODS AND COMPOSITIONS FOR TREATMENT OF DEMYELINATING DISORDERS” (Rush University Medical Center, priority 2019, published 2022).

Experiments:
[1] = target: T1, GFP-PPARβ LBD (Homo sapiens, UniProt Q03181); test: GFP-affinity purification of cerebellar lysate with GFP-PPARβ LBD, then EI-GCMS; assay type: binding; conditions: PPARβ pulled-down cerebellar lysate
T1 construct: incubated with recombinant GFP-PPARα LBD and GFP-PPARβ LBD proteins
T1 sequence (Q03181 211-439 limits assumed): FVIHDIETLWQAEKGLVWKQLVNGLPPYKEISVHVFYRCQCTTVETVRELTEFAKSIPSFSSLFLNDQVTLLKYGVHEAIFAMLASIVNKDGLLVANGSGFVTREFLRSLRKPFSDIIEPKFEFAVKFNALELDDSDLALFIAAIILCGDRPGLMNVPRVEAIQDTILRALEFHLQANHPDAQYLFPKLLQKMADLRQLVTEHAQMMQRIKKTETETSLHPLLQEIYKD
Description: To test that, we performed a GFP-based affinity purification procedure (25,29) in which cerebellar lysate of wild-type cerebellum was incubated with recombinant GFP-PPARα LBD and GFP-PPARβ LBD proteins, then passed through GFP column, eluted, fractionated with chloroform-methanol procedure, and finally analyzed for small molecules in the chloroform fraction with electron ionization gas chromatography (EI-GCMS) method as described elsewhere (29). […] A part of the eluted fraction was electrophoresed and stained with Coomassie blue to nullify the loading error of GFP-PPARαLBD and GFP-PPARβ LBD used for affinity purification.
GCMS analyses: Ligand detection: A JEOL GCMate II (JEOL USA, Peabody Mass.) mass spectrometer was used in ligand detection experiments. The gas chromatograph (GC) was an Agilent 6890Plus (Wilmington Del.) equipped with a G1513A auto-injector with 100 vial sample tray connected to a G1512A controller. The gas chromatography column was a fused silica capillary column with a nonpolar 5% phenyl 95% dimethylpolysiloxane phase (Agilent HP-5 ms), 30 meters long, 0.25 mm internal diameter, 0.25 μm film thickness. The carrier gas was Helium (99.9995% Research Grade) run through a STG triple filter (Restek Corp.) at a constant flow rate 1.1 mL/min. […]

[2] = target: T2, GFP-PPARα LBD (Homo sapiens, UniProt Q07869); test: GFP-affinity purification of cerebellar lysate with GFP-PPARα LBD, then EI-GCMS; assay type: binding; conditions: PPARα pulled-down cerebellar lysate
T2 construct: incubated with recombinant GFP-PPARα LBD and GFP-PPARβ LBD proteins
T2 sequence (Q07869 239-466 limits assumed): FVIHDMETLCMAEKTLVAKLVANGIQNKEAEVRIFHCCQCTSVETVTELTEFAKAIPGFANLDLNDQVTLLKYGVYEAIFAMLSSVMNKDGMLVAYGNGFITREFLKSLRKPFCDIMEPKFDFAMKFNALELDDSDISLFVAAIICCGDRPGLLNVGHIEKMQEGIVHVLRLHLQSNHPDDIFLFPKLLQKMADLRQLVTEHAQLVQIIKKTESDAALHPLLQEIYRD
Description: Identification of unique cerebellar ligands of PPARβ: PPARβ regulates the expression of myelin genes in vitro in cultured oligodendrocytes (19). However, it is not known if PPARβ regulates the expression of these genes in cerebellum, one of the heavily myelinated regions of the brain. To test the expression of myelin proteins, first we performed dual immunofluorescence analyses of myelin marker MBP together with PPARβ in the cerebellar tissue of wild-type (n=3), Pparb-null (n=3) and Ppara-null (n=3) mice. […] Moreover, DAB immunostaining of MBP and immunoblot analyses of other myelin genes including PLP and MOG have corroborated that PPARβ indeed is involved in the expression of myelin genes in cerebellum. […] To test that, we performed a GFP-based affinity purification procedure (25,29) in which cerebellar lysate of wild-type cerebellum was incubated with recombinant GFP-PPARα LBD and GFP-PPARβ LBD proteins, then passed through GFP column, eluted, fractionated with chloroform-methanol procedure, and finally analyzed for small molecules in the chloroform fraction with electron ionization gas chromatography (EI-GCMS) method as described elsewhere (29). […] Accordingly, we detected two matching bands of both GFP-PPARαLBD and GFP-PPARβLBD, both having mol. wt. of 64 kDa, negating the possibility of unequal loading of sample in MS column. […]

[3] = target: T3, GFPflpparβ (Mus musculus, UniProt P35396); test: GFP-affinity purification and GCMS of Pparb-null OPCs transduced with GFPflpparβ; assay type: binding
T3 construct: host or cells: Pparb-null mouse primary OPCs (lentiviral transduction)
T3 sequence (P35396 1-440): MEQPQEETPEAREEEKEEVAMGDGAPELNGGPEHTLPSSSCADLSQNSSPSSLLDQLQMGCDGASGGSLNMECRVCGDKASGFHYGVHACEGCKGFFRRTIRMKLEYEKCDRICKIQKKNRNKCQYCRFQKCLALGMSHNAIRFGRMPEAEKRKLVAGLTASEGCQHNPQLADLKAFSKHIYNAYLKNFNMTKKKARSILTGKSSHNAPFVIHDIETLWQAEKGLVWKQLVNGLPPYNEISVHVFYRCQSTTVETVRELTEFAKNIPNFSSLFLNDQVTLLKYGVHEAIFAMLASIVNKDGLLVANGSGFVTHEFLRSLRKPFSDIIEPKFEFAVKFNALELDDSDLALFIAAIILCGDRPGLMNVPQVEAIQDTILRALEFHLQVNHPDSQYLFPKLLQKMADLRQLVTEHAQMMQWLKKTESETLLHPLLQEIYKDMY
Description: Therefore, next, we wanted to confirm these interactions in vitro in a cell-bound system. To test that, Pparb-null mouse primary OPCs were isolated from P1 murine neonates, infected with viral particles of GFP, GFPflpparb, GFPV304Mpparb, GFPH412Lpparb constructs for 48 hrs. After that, OPCs were homogenized, passed through the GFP-affinity column, eluted, fractionated with chloroform-methanol, and finally analyzed with GCMS to quantify these ligands. […] Throughout these analyses, we used dodecane as an internal standard.
Sample preparation: After treatment, mouse primary OPCs were homogenized in ice-cold nondetergent hypotonic buffer [10 mM HEPES (pH 7.9), 1.5 mM MgCl2, 10 mM KCl, 100 mM DTT, protease and phosphatase inhibitor cocktail]. After 10 min of additional incubation in the hypotonic buffer, the homogenate was centrifuged at 8,000 g at 4° C. for 10 min. […] The organic phase was collected, evaporated in the speedvac, reconstituted with 30 μL chloroform, and finally analyzed with GCMS. […] After that, the eluate was collected from the column with 5M NaCl solution, concentrated with PD-10 desalting column and analyzed for GCMS.

[4] = tested on: mouse primary OPCs; test: Double immunofluorescence (NG2/MBP, A2B5/PLP): differentiation of OPCs to oligodendrocytes; assay type: cell-based; conditions: 1 μM DBB, 0.5 μM DBP, 0.5 μM MePA, 24 hrs
Description: (§1) FIG. 1A-1T. The role of DBB, DBP and MePA in the differentiation of OPC into oligodendrocytes and myelination. […] Briefly, mouse primary OPCs were treated with different concentrations of molecules for 1 hr, lysed and measured for DNA probe binding activity of PPARβ. […] Benzene was included as negative control. **p<0.01 vs. control for PLP, MOG, MBP, and CNPase. Results are mean±SD of three independent experiments. (FIG. 1G) Immunoblot followed by (FIG. 1H) relative densitometric analyses of PLP and MBP in mouse primary OPCs treated with increasing concentrations of DBB for 18 hrs. Band intensity was measured with image J software and then normalized with respective actin band. *p<0.05 (=0.041) vs. PLP control and *p<0.05 (=0.026) vs. MBP control. […] (N) Mean fluorescence intensity (MFI) of MBP was measured from total 15 cells per group with three cells from 5 different images per group. […] (FIG. 1Q) Mean fluorescence intensity (MFI) of MBP was measured from total 15 cells per group with three cells from 5 different images per group. […] (FIG. 1T) Numbers of MBP-ir cells of different treatment groups were counted per sq.mm of nanofiber matrix and presented as a histogram. […]
DBB, DBP and MePA stimulate the differentiation of OPC to oligodendrocytes and promote myelination. […] After that, cells were lysed and assessed for PPRE-luciferase activity. […]

[5] = tested on: mouse primary OPCs; test: Myelination of OPCs on polycaprolactone nanofiber matrix (MBP staining); assay type: cell-based; conditions: 1 μM DBB, 0.5 μM DBP, 0.5 μM MePA
Description: as §1
The essential role of PPARβ in DBB-, DBP- and MePa-mediated differentiation of OPCs to oligodendrocytes and myelination. […] After that, PPRE-luciferase activity was assessed. […]

[6] = target: T4, PPARβ LBD (Homo sapiens, UniProt Q03181); test: TR-FRET (Lanthascreen PPAR-β coactivator assay)
T4 sequence (Q03181 211-439 limits assumed): T1 sequence (Q03181 211-439 limits assumed)
Description: The shift of each melting curve was calculated by subtracting the melting temperature (Tm) of PPARβ protein+ligand with Tm of PPARβ protein alone. Any shift (ΔTm) with more than 2° C. would be considered as significant.
TR-FRET analysis: TR-FRET assay was performed using Lanthascreen TR-FRET PPAR-β coactivator assay kit (Cat #PV4685). […] The entire reaction was set up in corning 96 well-plate followed by incubation in a dark place for 30 mins, and then analyzed “Victor X5” machine equipped with dichroic mirror. The excitation wavelength and emission wavelength were set at 340 nm and 540 nm wavelength respectively.

[7] = adjusted to internal standard peak

## CCCCCCCCCCCCCCCC(=O)OC [MePA, Methyl palmitate]
[1]
  % RA: 40.678%
[1]; [7]
  Relative abundance: 0.4068
[2]
  % RA: 0%
[2]; [7]
  Relative abundance: 0
[3]; ligand peak area divided by dodecane peak
  Adjusted Peak Area: 0.0108
[3]; relative abundance
  RA: 1
[4]
  differentiation of OPCs into oligodendrocytes: stimulate the differentiation of OPCs into oligodendrocytes
[5]
  MBP-ir cell bodies per sq.mm of nanofiber matrix (maturation of oligodendrocytes): stimulated the maturation of oligodendrocytes
[5]; 24 hrs
  myelin formation on nanofibers: promote myelin formation
[6]
  EC50: 72 nM
